Where two headings read alike, the source gives them in different places.
Experiments:
[1] = test system: GLP-1R; conditions: GLP-1R, less potent than the endogenous hormone, factor; cited from earlier work
Text: (§1) The most successful treatments currently available include glucagon-like peptide-1 (GLP-1) receptor agonists (GLP-1RAs), exemplified by semaglutide (approved in 2017, $19.9 billion sales in 2023)[3] and tirzepatide (approved in 2022, $5.3 billion sales in 2023)[4].

[2] = test system: GCGR; conditions: less potent than the endogenous hormone; cited from earlier work
Text: as §1

[3] = test system: GIPR; conditions: GIPR, more potent than the endogenous hormone by this factor; cited from earlier work
Text: as §1

[4] = target: T1, GCGR mutants (Homo sapiens, UniProt P47871, S297A); assay: cAMP accumulation, single-point mutated GCGR; format: cell-based; conditions: GCGR S297(ECL2)A; HEK-293T, 40 min, TR-FRET; mean ± S.E.M., n at least 3
T1 construct: expressed in transfected cells; host or cells: HEK-293T
T1 sequence (P47871 26-477 S297A): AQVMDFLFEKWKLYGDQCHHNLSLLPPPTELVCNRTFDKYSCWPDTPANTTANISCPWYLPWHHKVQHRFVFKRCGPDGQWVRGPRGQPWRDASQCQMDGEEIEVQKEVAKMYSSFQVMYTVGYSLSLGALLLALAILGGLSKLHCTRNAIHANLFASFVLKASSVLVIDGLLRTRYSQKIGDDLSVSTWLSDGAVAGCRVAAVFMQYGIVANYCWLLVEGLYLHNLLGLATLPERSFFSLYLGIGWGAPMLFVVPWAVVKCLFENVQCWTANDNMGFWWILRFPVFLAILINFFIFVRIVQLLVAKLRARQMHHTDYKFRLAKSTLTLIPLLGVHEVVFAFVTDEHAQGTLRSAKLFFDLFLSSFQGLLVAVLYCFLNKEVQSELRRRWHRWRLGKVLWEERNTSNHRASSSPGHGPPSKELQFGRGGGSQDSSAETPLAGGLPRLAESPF
Method: (§2) HEK-293T cells were maintained at 37°C in 5% CO2 incubator and seeded onto 6-well cell […]
(§3) culture plates before transfection. After overnight culture, the cells were transiently transfected […]
(§4) with various constructs using Lipofectamine 2000 transfection reagent (Invitrogen). After 24 h, […]
(§5) the transfected cells were seeded onto 384-microtiter plates at a density of 3,000 cells per well […]
(§6) in stimulation buffer (HBSS supplemented with 5 mM HEPES, 0.1% (w/v) casein and 0.5 mM […]
(§7) 3-isobutyl-1-methylxanthine). Different concentrations of retatrutide in stimulation buffer were […]
(§8) added, and the stimulation lasted for 40 min. The reaction was stopped by addition of cAMP […]
(§9) detection buffer containing Eu-cAMP tracer and ULight-anti-cAMP. Plates were then incubated for […]
(§10) 60 min at RT. Time-resolved FRET signals were measured at 620 nm and 665 nm, respectively, by […]
(§11) an EnVision multilabel plate reader (PerkinElmer). Data were analyzed in GraphPad PRISM 9.5 […]
(§12) and all values were normalized to that of the wild-type (WT).
(§13) Supplementary Fig. 5 Effects of receptor mutation on retatrutide-induced cAMP […]
(§14) accumulation. a-c, Signaling profiles of GLP-1R (a), GIPR (b) and GCGR (c) mutants. cAMP […]
(§15) accumulation was measured in wild-type (WT) and single-point mutated GLP-1R, GIPR or […]
(§16) GCGR expressing HEK-293T cells. cAMP levels were normalized to the maximum response […]
(§17) of the WT and dose-response curves were analyzed using a three-parameter logistic equation.
(§18) Data were generated and graphed as means ± S.E.M. of at least three independent experiments performed in quadruplicate.
(§19) (1 picture or pasted object on this page, not shown here)
(§20) Supplementary Ta b l e S 5 Effects of the ligand-binding pocket residue mutation on retatrutide- […]
(§21) induced cAMP signaling at GLP-1R, GIPR or GCGR. […]
(§22) cAMP levels were normalized to the maximum response of the wild-type (WT) and dose-response […]
(§23) curves were analyzed using a three-parameter logistic equation to obtain pEC50 and Emax values. The […]
(§24) experiments were carried out independently at least three times. Data shown are means ± S.E.M. One- […]
(§25) way ANOVA was used to determine statistical difference. N.D., values that could not be determined due […]
(§26) to incomplete curve fits. *P< 0.05, **P< 0.01, ***P< 0.001 and ****P<0.0001.

[5] = target: T2, GCGR mutants (Homo sapiens, UniProt P47871, Q131A); assay: cAMP accumulation, single-point mutated GCGR; format: cell-based; conditions: GCGR Q131(1.29b)A; HEK-293T, 40 min, TR-FRET; mean ± S.E.M., n at least 3
T2 construct: expressed in transfected cells; host or cells: HEK-293T
T2 sequence (P47871 26-477 Q131A): as the sequence (P47871 26-477 S297A) above, with Q106A, A272S counted along it
Method: as §2, §3, §4, §5, §6, §7, §8, §9, §10, §11, §12, §13, §14, §15, §16, §17, §18, §19, §20, §21, §22, §23, §24, §25, §26

[6] = test system: GCGR mutants; assay: cAMP accumulation, single-point mutated GCGR; format: cell-based, human; conditions: relative to WT
Method: as §2, §3, §4, §5, §6, §7, §8, §9, §10, §11, §12, §13, §14, §15, §16, §17, §18, §19, §20, §21, §22, §23, §24, §25, §26

[7] = target: T3, GCGR mutants (Homo sapiens, UniProt P47871, Y138A); assay: cAMP accumulation, single-point mutated GCGR; format: cell-based; conditions: GCGR Y138(1.36b)A, HEK-293T, 40 min, TR-FRET, mean ± S.E.M., n at least 3
T3 construct: expressed in transfected cells; host or cells: HEK-293T
T3 sequence (P47871 26-477 Y138A): as the sequence (P47871 26-477 S297A) above, with Y113A, A272S counted along it
Method: as §2, §3, §4, §5, §6, §7, §8, §9, §10, §11, §12, §13, §14, §15, §16, §17, §18, §19, §20, §21, §22, §23, §24, §25, §26

[8] = target: T4, GCGR mutants (Homo sapiens, UniProt P47871, K205A); assay: cAMP accumulation, single-point mutated GCGR; format: cell-based; conditions: GCGR K205(ECL1)A; HEK-293T, 40 min, TR-FRET; mean ± S.E.M., n at least 3
T4 construct: expressed in transfected cells; host or cells: HEK-293T
T4 sequence (P47871 26-477 K205A): as the sequence (P47871 26-477 S297A) above, with K180A, A272S counted along it
Method: as §2, §3, §4, §5, §6, §7, §8, §9, §10, §11, §12, §13, §14, §15, §16, §17, §18, §19, §20, §21, §22, §23, §24, §25, §26

[9] = target: T5, GCGR mutants (Homo sapiens, UniProt P47871, Q293A); assay: cAMP accumulation, single-point mutated GCGR; format: cell-based; conditions: GCGR Q293(ECL2)A, HEK-293T, 40 min, TR-FRET, mean ± S.E.M., n at least 3
T5 construct: expressed in transfected cells; host or cells: HEK-293T
T5 sequence (P47871 26-477 Q293A): as the sequence (P47871 26-477 S297A) above, with Q268A, A272S counted along it
Method: as §2, §3, §4, §5, §6, §7, §8, §9, §10, §11, §12, §13, §14, §15, §16, §17, §18, §19, §20, §21, §22, §23, §24, §25, §26

[10] = target: T6, GCGR mutants (Homo sapiens, UniProt P47871, Y202A); assay: cAMP accumulation, single-point mutated GCGR; format: cell-based; conditions: GCGR Y202(2.75b)A, HEK-293T, 40 min, TR-FRET, mean ± S.E.M., n at least 3
T6 construct: expressed in transfected cells; host or cells: HEK-293T
T6 sequence (P47871 26-477 Y202A): as the sequence (P47871 26-477 S297A) above, with Y177A, A272S counted along it
Method: as §2, §3, §4, §5, §6, §7, §8, §9, §10, §11, §12, §13, §14, §15, §16, §17, §18, §19, §20, §21, §22, §23, §24, §25, §26

[11] = target: T7, GCGR mutants (Homo sapiens, UniProt P47871, W87A); assay: cAMP accumulation, single-point mutated GCGR; format: cell-based; conditions: GCGR W87(ECD)A, HEK-293T, 40 min, TR-FRET, mean ± S.E.M., n at least 3
T7 construct: expressed in transfected cells; host or cells: HEK-293T
T7 sequence (P47871 26-477 W87A): as the sequence (P47871 26-477 S297A) above, with W62A, A272S counted along it
Method: as §2, §3, §4, §5, §6, §7, §8, §9, §10, §11, §12, §13, §14, §15, §16, §17, §18, §19, §20, §21, §22, §23, §24, §25, §26

[12] = target: T8, GCGR mutants (Homo sapiens, UniProt P47871, D385A); assay: cAMP accumulation, single-point mutated GCGR; format: cell-based; conditions: GCGR D385(7.42b)A, HEK-293T, 40 min, TR-FRET, mean ± S.E.M., n at least 3
T8 construct: expressed in transfected cells; host or cells: HEK-293T
T8 sequence (P47871 26-477 D385A): as the sequence (P47871 26-477 S297A) above, with A272S, D360A counted along it
Method: as §2, §3, §4, §5, §6, §7, §8, §9, §10, §11, §12, §13, §14, §15, §16, §17, §18, §19, §20, §21, §22, §23, §24, §25, §26

[13] = target: T9, GCGR mutants (Homo sapiens, UniProt P47871, W215A); assay: cAMP accumulation, single-point mutated GCGR; format: cell-based; conditions: GCGR W215(ECL1)A, HEK-293T, 40 min, TR-FRET, mean ± S.E.M., n at least 3
T9 construct: expressed in transfected cells; host or cells: HEK-293T
T9 sequence (P47871 26-477 W215A): as the sequence (P47871 26-477 S297A) above, with W190A, A272S counted along it
Method: as §2, §3, §4, §5, §6, §7, §8, §9, §10, §11, §12, §13, §14, §15, §16, §17, §18, §19, §20, §21, §22, §23, §24, §25, §26

[14] = cited from earlier work; for decrease in body weight (up to): single dose, ref Coskun T et al (supplement ref 17)
Text: For humans, events were mild, such as 50 1 ascending (PMID: 4 months ...

CC[C@H](C)[C@H](NC(=O)[C@H](Cc1ccccc1)NC(=O)[C@H](C)NC(=O)C(C)(C)NC(=O)[C@H](CCC(N)=O)NC(=O)[C@H](C)NC(=O)[C@H](CCCCNC(=O)COCCOCCNC(=O)CC[C@H](NC(=O)CCCCCCCCCCCCCCCCCCC(=O)O)C(=O)O)NC(=O)[C@H](CCCCN)NC(=O)[C@H](CC(=O)O)NC(=O)[C@H](CC(C)C)NC(=O)[C@](C)(CC(C)C)NC(=O)[C@@H](NC(=O)[C@H](CO)NC(=O)[C@H](Cc1ccc(O)cc1)NC(=O)[C@H](CC(=O)O)NC(=O)[C@H](CO)NC(=O)[C@@H](NC(=O)[C@H](Cc1ccccc1)NC(=O)[C@@H](NC(=O)CNC(=O)[C@H](CCC(N)=O)NC(=O)C(C)(C)NC(=O)[C@@H](N)Cc1ccc(O)cc1)[C@@H](C)O)[C@@H](C)O)[C@@H](C)CC)C(=O)N[C@@H](CCC(=O)O)C(=O)N[C@@H](Cc1ccc(O)cc1)C(=O)N[C@@H](CC(C)C)C(=O)N[C@@H](CC(C)C)C(=O)N[C@@H](CCC(=O)O)C(=O)NCC(=O)NCC(=O)N1CCC[C@H]1C(=O)N[C@@H](CO)C(=O)N[C@@H](CO)C(=O)NCC(=O)N[C@@H](C)C(=O)N1CCC[C@H]1C(=O)N1CCC[C@H]1C(=O)N1CCC[C@H]1C(=O)N[C@@H](CO)C(N)=O [retatrutide]
potency factor compared to endogenous hormone [1]: 0.4 | potency factor compared to endogenous hormone [2]: 0.3 | potency factor compared to endogenous hormone [3]: 8.9 | EC50 [4]: 4.9 pM | Emax ± S.E.M. (% WT) [4]: 100.48 ± 1.34 % WT | EC50 [5]: 6.76 pM | Emax ± S.E.M. (% WT) [5]: 100.15 ± 1.51 % WT | change of retatrutide potency by mutation ([6]; GCGR S297(ECL2)A): slightly increased | decrease of cAMP signaling potency by mutation ([6]; GCGR Y138(1.36b)A): 26.9 fold | change of cAMP signaling potency by mutation ([6]; GCGR Y138(1.36b)L): moderately increased | Emax ± S.E.M. (% WT) [7]: 101.28 ± 2.08 % WT | EC50 ([7]; ****P < 0.0001): 195 pM | EC50 [8]: 9.33 pM | Emax ± S.E.M. (% WT) [8]: 100.00 ± 2.06 % WT | Emax ± S.E.M. (% WT) [9]: 99.73 ± 0.94 % WT | EC50 ([9]; **P < 0.01): 3.24 pM | Emax ± S.E.M. (% WT) [10]: 100.47 ± 2.15 % WT | EC50 ([10]; ****P < 0.0001): 123 pM | Emax ± S.E.M. (% WT) [11]: 101.97 ± 3.51 % WT | EC50 ([11]; ****P < 0.0001): 631 pM | Emax ± S.E.M. (% WT) [12]: 100.58 ± 1.33 % WT | EC50 ([12]; ****P < 0.0001): 47.9 pM | Emax ± S.E.M. (% WT) [13]: 101.34 ± 2.03 % WT | EC50 ([13]; ****P < 0.0001): 66.1 pM | body weight reduction ([14]; 3 mg group, ref Urva S et al (supplement ref 18)): –4.71 kg | decrease in body weight (up to) ([14]; 4.5 mg): –2.93 kg | decrease in body weight (up to) ([14]; 6 mg): –3.52 kg | body weight reduction ([14]; 3/6 mg group, ref Urva S et al (supplement ref 18)): –7.83 kg | fasting and postprandial plasma glucose and HbA1c ([14]; compared to placebo, ref Urva S et al (supplement ref 18)): clinically decreases | severity of most treatment-related adverse events ([14]; human, in vivo): mild | glycemic control ([14]; ref Urva S et al (supplement ref 18)): showed glycemic control efficacy

Source: publication PMC11255275, “Structural insights into the triple agonism at GLP-1R, GIPR and GCGR manifested by retatrutide” (Cell Discovery, 2024)
